{
  "source": "patent US8937039B2",
  "about": "“Peptide-based peroxidase inhibitors and methods of using same” (The Medical College of Wisconsin, Inc., priority 2009, dated 2015)",
  "key": {"SCD mice [1]": {"test_system": "SCD mice", "experiment": "Immunofluorescence of aortas of treated SCD mice (chlorotyrosine, MPO)", "type": "in vivo, mouse", "settings": "KYC IP 0.3 mg/kg/d, three weeks, vs non-treated SCD mice", "protocol": "Immunofluorescence Studies. In a separate study, SCD mice were treated with KYC (IP, 0.3 mg/kg/d). After three weeks treatment, mice were deeply anesthetized and euthanized by exsanguination. Thoracic and abdominal aortas were surgically removed and rinsed free of blood elements using ice cold PBS. Aortas were fixed, imbedded in paraffin, and sectioned."}, "SCD mice [2]": {"test_system": "SCD mice", "experiment": "Vessel wall thickness of facialis arteries of treated SCD mice", "type": "in vivo, mouse", "settings": "KYC three weeks; P=0.10", "protocol": "Vessel Wall Thickness. After completing the vasodilatation studies, the pressurized vessels were maximally dilated by addition of papaverine (10^−4 mol/L, 4 min), and outside and inside diameters recorded. An index of wall thickness was calculated using the following formula; ([…]/2)/outside diameter, as previously described."}, "NADPH oxidase (NOX)": {"biological_target": "T1, NADPH oxidase (NOX) (Homo sapiens, UniProt P04839)", "T1 construct": "host or cells: HL-60 cells stimulated with PMA", "T1 sequence (P04839 2-570 limits assumed)": "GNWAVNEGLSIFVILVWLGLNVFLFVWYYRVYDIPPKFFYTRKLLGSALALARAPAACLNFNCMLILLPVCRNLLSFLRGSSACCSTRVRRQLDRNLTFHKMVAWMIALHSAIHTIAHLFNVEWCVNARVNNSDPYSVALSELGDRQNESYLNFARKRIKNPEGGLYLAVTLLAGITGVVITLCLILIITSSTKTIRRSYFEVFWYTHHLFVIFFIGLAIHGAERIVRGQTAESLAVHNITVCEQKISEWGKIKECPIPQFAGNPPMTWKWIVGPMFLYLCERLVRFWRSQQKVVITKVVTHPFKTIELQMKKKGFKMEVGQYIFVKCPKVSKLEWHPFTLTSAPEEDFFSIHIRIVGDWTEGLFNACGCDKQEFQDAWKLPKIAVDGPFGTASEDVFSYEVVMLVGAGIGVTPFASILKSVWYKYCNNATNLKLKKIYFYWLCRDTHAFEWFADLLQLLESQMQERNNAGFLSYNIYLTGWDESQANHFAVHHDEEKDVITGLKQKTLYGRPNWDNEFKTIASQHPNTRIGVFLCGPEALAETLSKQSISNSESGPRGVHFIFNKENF", "T1 sequence (P13498 2-195 partner limits assumed)": "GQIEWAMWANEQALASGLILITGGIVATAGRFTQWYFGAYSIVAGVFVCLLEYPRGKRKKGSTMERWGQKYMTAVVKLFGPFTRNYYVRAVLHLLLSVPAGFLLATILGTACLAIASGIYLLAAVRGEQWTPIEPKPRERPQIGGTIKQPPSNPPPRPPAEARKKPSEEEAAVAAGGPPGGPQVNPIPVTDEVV", "experiment": "PMA-stimulated HL-60 cell superoxide formation (SOD-inhibitable cytochrome C reduction)", "type": "cell-based", "settings": "cytochrome C assay", "protocol": "PMA-induced Superoxide Anion Formation. HL-60 cells were cultured in RPMI 1640 medium containing 10% FCS (passage 20-50). HL-60 cells were harvested by centrifugation (1000 rpm, 10 min), washed 2× with phosphate buffer (10 mM, pH 7.4) with NaCl (138 mM), KCl (2.67 mM), CaCl2 (0.901 mM), MgCl2 (0.493 mM) and glucose (1 mg/ml) to remove culture medium. The HL-60 cells (6×10^6/0.5 ml) were re-suspended in DPBS. After stimulation with PMA (10 μM), the HL-60 cells were incubated with cytochrome C (40 μM) with or without superoxide dismutase at 37° C. for 30 min. The reaction was stopped by centrifugation. Cytochrome C reduction was measured at 550 nm on a UV-Vis spectrophotometer (Agilent, Model 8453).\nPMA-stimulated HL-60 cell O2.^− Formation: HL-60 cells were harvested by centrifugation (1000 rpm, 10 min), washed twice with DPBS with glucose to remove culture medium. The HL-60 cells (1.2×10^7/ml) were re-suspended in DPBS with glucose. After stimulation with PMA (10 μM), the HL-60 cells were incubated with cytochrome C (40 μM) with or without superoxide dismutase (500 units/mL) at 37° C. for 10 min and then the HL-60 cells were removed by centrifugation. Cytochrome C reduction in supernatants was measured at 550 nm using a UV-Vis spectrophotometer (Agilent, Model 8453)."}, "SCD mice [3]": {"test_system": "SCD mice", "experiment": "Vasodilatation of pressurized facialis arteries from SCD mice treated in vivo", "set-up": "species or system mouse", "settings": "KYC, three weeks", "protocol": "Murine Model of Sickle Cell Disease. Mice treated with KYC in vivo. SCD mice were treated with KYC (intraperitoneal injection: IP 0.3 mg/kg/d) or with PBS (IP 100 μL) for 3 weeks. Anesthesia was induced with Ketamine (100 mg/kg)+Xylazine (10 mg/kg) cocktail (ip) and then sacrificed by exsanguination. Facialis arteries were atraumatically dissected and maintained in cooled MOPS solution (in mM: NaCl 145, KCL 4.7, CaCl2 2, NaH2PO4 1.2, MgSO4, 1.2, pyruvate 2, EDTA 0.02, MOPS 3.0, and glucose 5.0, at pH 7.4). Vessels were then submerged in a MOPS bath, mounted on MOPS-containing glass capillary tubes, internally pressurized (60 mmHg), and warmed to 37° C. Internal vascular diameters were measured with a calibrated video-microscope (Boeckeler). After the vessel was allowed to acclimate to 37° C. (approximately 30 min), the diameter was measured and recorded (Dmax). […] A control dose-response curve using acetylcholine (ACh, 10^−7-10^−4 M) was performed and vessel diameter recorded. […] Vasodilation to papaverine ([…]) was determined after all treatments to ensure smooth muscle viability. Vasodilation was calculated as a percent of maximal vessel diameter change.\nVasodilatation. […] Physiological responses to increasing concentrations of acetylcholine (ACh) were determined by videomicroscopy as previously described."}},
  "note": "Entries after “also recorded” stand apart in the source; their conditions may differ. Residues, ends and D or L forms follow the SMILES beside them.",
  "data": [
    {"compound": "CC(=O)N[C@@H](CCCCN)C(=O)N[C@@H](Cc1ccc(O)cc1)C(=O)N[C@@H](CS)C(N)=O", "note": "[KYC, N-acetyl Lysyltyrosylcysteine Amide] (Ac-Lys-Tyr-Cys-NH2)", "values": [
      {"measurement": "Chlorotyrosine levels in aortas (in words)", "setting": "SCD mice [1]", "result": "reduced"},
      {"measurement": "MPO levels in aortas (in words)", "setting": "SCD mice [1]", "result": "reduced"},
      {"measurement": "Vessel wall thickness (in words)", "setting": "SCD mice [2]", "result": "reduces vessel wall thickness"},
      {"measurement": "O2.− production in PMA-stimulated HL-60 cells (in words)", "setting": "NADPH oxidase (NOX)", "result": "neither KYC nor KYC disulfide have any significant effect; also recorded: Neither KYC nor KYC disulfide had any significant effect"},
      {"measurement": "Endothelium- and eNOS-dependent vasodilatation (in words)", "setting": "SCD mice [3]", "result": "dramatically increases"}
    ]}
  ]
}
